Results taken from patent publication US10513534B2, “2′-chloro nucleoside analogs for HCV infection” (priority 2012, dated 2019).
Read-outs that look alike come from different tables or passages of the source.

Key:
HCV genotype 1b replicon [1] = test: HCV replicon assay (Zluc luciferase); type: cell-based; settings: Zluc cells, 72 hours; read-out: HCV Replicon EC50
How it was run: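 Zluc Huh-7 cells with HCV genotype 1b replicon and luciferase reporter treated with 5-fold dilutions (100 μM to 0.0000512 μM final) in duplicate, or at 1 and 10 μM. Luminescence read with ONE-glo; EC50 from dose-response fits, or % inhibition at the fixed concentrations.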

[2] = Stability in liver microsomes; type: in vitro ADME; settings: human liver microsomes 1.0 mg/mL, 10 μM, NADPH, 60 min
Experimental: (§1) Stability of test compounds were determined in human liver and intestinal microsomes in duplicate for each matrix. Pooled liver and intestinal microsomal proteins (1.0 mg/mL), suspended in incubation buffer (100 mM potassium phosphate, pH 7.4, 5 mM MgCl2, and 0.1 mM EDTA), were preincubated for 5 min at 37° C. with 10 μM of a test compound from a 10 mM stock solution in DMSO (final DMSO concentration was 0.1%); the reaction was initiated by the addition of NADPH (3 mM final concentration). At specific times (0 and 60 min), 0.1 mL samples were taken and the reaction terminated by the addition of 4 volumes of stop solution (acetonitrile with 500 ng/mL carbutamide as an internal standard). The samples were vortexed for 30 sec and then centrifuged at 16000×g for 10 min. 100 μL of supernatants were transferred to 96 deep-well plates preloaded with 100 μL distilled water and analyzed after mixing by LC-MS/MS. The MS peak area ratio of the test compound versus the internal standard was calculated and percent unchanged test compound over 60 minutes was calculated using this ratio.

[3] = Stability in intestinal microsomes; type: in vitro ADME; settings: human intestinal microsomes 1.0 mg/mL, 10 μM, NADPH, 60 min
Experimental: as §1

fresh mouse hepatocytes = test: Release of active metabolite in fresh mouse hepatocytes; type: in vitro ADME; settings: 10 μM
Experimental: Plates of fresh human and mouse hepatocytes were obtained on ice. The medium was removed and replaced with hepatocyte culture medium (William's E supplemented with penicillin-streptomycin, 1% L-glutamine, 1% insulin-transferrin-selenium and 0.1 μM Dexamethasone (Invitrogen) or with Invitro GRO HI medium complemented with Torpedo antibiotics (Celsis)). Cells were left overnight in an incubator at 37° C. to acclimatize to culture and the medium.
Hepatocyte incubations were conducted at a final volume of 0.5 mL hepatocyte culture medium/well (0.8 million cells/well for human and 0.5 million cells/well for mouse; 12 well plate no overlay, collagen coat). Culture medium from overnight incubation of cells was removed and replaced with fresh medium, pre-warmed to 37° C., containing 10 μM of test compound from a stock solution in DMSO (final DMSO concentration was 0.1%). At each specific time point, incubation medium was removed and cell monolayers were carefully washed two times with ice-cold PBS. Following the last wash, all PBS was carefully removed and 1.0 mL of extraction solution (ice-cold 70% methanol/30% water) added. Cells were scraped off and suspended in the extraction solution, transferred to 2 mL polypropylene microfuge tubes and intracellular contents extracted overnight at −20° C.
After the overnight treatment the cellular extracts were prepared by centrifugation at 16,000×g for 10 min to remove cellular debris. The remaining sample was then dried using a refrigerated centrivap concentrator. Dry extracts were reconstituted in 1000 μL of HPLC-grade water and centrifuged at 16,000×g for 10 min. Aliquots (100 μL each) of the supernatant were transferred into a 96 well plate and internal standard (4 ng/mL final concentration) was added as the internal standard (IS) for LC-MS/MS analysis.
The incubation time points were 6, 24 and 48 hours for human hepatocytes and 1, 4, 8, 12 and 24 hours for mouse hepatocytes.

[4] = Plasma nucleoside pharmacokinetics after single oral dose in CD-1 mice; type: in vivo; settings: single oral dose 10 mg/kg in PEG 200;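 as to Ms Plasma nucleoside AUC: pmol·h/mL plasma normalized to a 1 µmol/kg dose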
How it was run: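 Mouse plasma was extracted by acetonitrile/0.2% formic acid protein precipitation using 2′-MeG-D3 or tiapride as internal standard. Nucleoside was quantified by positive-ion LC-MS/MS after C18 gradient separation. Calibration spanned 0.500 (LLOQ) to 200 ng/mL.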

[5] = Plasma prodrug and nucleoside pharmacokinetics after single oral dose in cynomolgus monkeys; type: in vivo; settings: single oral 10 mg/kg
Experimental: (§2) For each compound, a single oral dose at 10 mg/kg in PEG 200 (dose volume 3 mL/kg) was administered to cynomolgus monkeys. Untreated animals were used for the collection of control liver. Plasma samples were collected at 0.5, 1, 2, 4, 6, 8, 12 and 24 hours for compound 37, diastereomer 2.
Plasma samples were analyzed for the prodrug and nucleoside by LC-MS/MS. For protein precipitation and extraction, each plasma sample (50 μL) was treated with 500 μL of 0.2% formic acid in acetonitrile and 20 μL of an appropriate internal standard working solution. After vortexing and centrifugation, 500 µL of the sample extracts were transferred to a new plate, dried under N2 at ˜28° C. and reconstituted with 75 μL of 0.2% FA in water. The extracts were chromatographed on an Aquasil C18 column using a gradient system of 0.2% formic acid in water and acetonitrile. The analytes were detected and quantified by tandem mass spectrometry in positive ion mode on an MDS Sciex API4000 equipped with a Turbo Ionspray® interface.

[6] = Liver triphosphate pharmacokinetics after single oral dose in cynomolgus monkeys; type: in vivo
Experimental: as §2
Liver samples were analyzed for the relevant nucleoside triphosphate by LC-MS/MS. […] Appropriate internal standard solution was added to the homogenate followed by neutralization with 20% ammonium hydroxide solution and addition of 500 μL 1% formic acid. The tissue samples were extracted by weak anion exchange solid phase extraction (SPE). Post extraction, the eluates were evaporated under nitrogen, followed by reconstitution before injection onto the LC-MS/MS system.

Zluc cells [7] = test: Cytotoxicity evaluation, CellTiter-Blue Cell Viability Assay; settings: Zluc cells, CellTiter-Blue
HCV genotype 1b replicon [8] = test: HCV replicon assay in Zluc cells (CES1 study); type: cell-based; settings: 72 hours
Experimental: (§3) An Huh-7-derived cell line (Zluc) that harbors an HCV genotype 1b replicon and a luciferase reporter gene was grown in Dulbecco's Modified Eagle Medium (DMEM) supplemented with 10% fetal bovine serum, 2 mM GlutaMAX, 1% MEM nonessential amino acids, 100 IU/mL penicillin, 100 μg/mL streptomycin, and 0.5 mg/mL Geneticin® (G418). Zluc cells were transiently transfected with human CES1 (GenBank Accession No. NM_001025194) by employing a lipid/histone based transfection procedure. Expression of CES1 was confirmed by Western blot, 24- and 48-hours after transfection, using anti-CES1 and anti-FLAG® tag antibodies.
For dose response testing the cells were seeded in 96-well plates at 7.5×10^3 cells per well in a volume of […], and incubated at 37° C./5% CO2. Drug solutions were prepared freshly in the culture medium as 2× stocks. Ten additional 5-fold dilutions were prepared from these stocks in DMEM without G418. At least three hours after cells were seeded, drug treatment was initiated by adding 50 μL of drug dilutions to the plates in duplicate. […] The plates were shaken gently for 3 min at room temperature and luminescence was measured on a Victor^3 V 1420 multilabel counter (Perkin Elmer) with a 1 second read time using a 700 nm cut-off filter. The EC50 values were calculated from dose response curves from the resulting best-fit equations determined by Microsoft Excel and XLfit 4.1 software.

HCV genotype 1b replicon [9] = test: HCV replicon assay in Zluc cells transiently transfected with human CES1; type: cell-based; settings: for EC50: Zluc cells transiently transfected with human CES1, 72 hours; for Effect of CES1 overexpression on replicon activity: cells overexpressing CES1 versus Zluc; for Fold Activity Increase EC50 (Zluc)/EC50 (Zluc + CES1): ratio of replicon EC50 without and with CES1 overexpression
Experimental: as §3
For dose response testing the cells were seeded in 96-well plates at 7.5×10^3 cells per well in a volume of […], and incubated at 37° C./5% CO2. Drug solutions were prepared freshly in the culture medium as 2× stocks. Ten additional 5-fold dilutions were prepared from these stocks in DMEM without G418. At least three hours after cells were seeded, drug treatment was initiated by adding 50 μL of drug dilutions to the plates in duplicate. Final concentrations of drug ranged from 100 μM to 0.0000512 μM. Cells were then incubated at 37° C./5% CO2. […] For this, media was removed from the plates via gentle tapping. Fifty microliters of ONE-glo luciferase assay reagent was added to each well. The plates were shaken gently for 3 min at room temperature and luminescence was measured on a Victor^3 V 1420 multilabel counter (Perkin Elmer) with a 1 second read time using a 700 nm cut-off filter. The EC50 values were calculated from dose response curves from the resulting best-fit equations determined by Microsoft Excel and XLfit 4.1 software.

Zluc cells [10] = test: Cytotoxicity in Zluc cells (CES1 study); type: cell-based
Experimental: (§4) For cytotoxicity evaluation, cells were treated with compounds as described herein, and cell viability was monitored using the CellTiter-Blue Cell Viability Assay (Promega) by adding 20 μL of the assay solution to each well. The plates were then incubated at 37° C./5% CO2 for at least 3 hours.

Zluc + CES1 cells = test: Cytotoxicity in Zluc cells transfected with human CES1; type: cell-based; settings: Zluc cells transiently transfected with human CES1
Experimental: as §3, §4

[11] = Cytotoxicity in Zluc cells (CES1 study); type: cell-based; settings: human
Experimental: as §4

[12] = Cytotoxicity in Zluc cells transfected with human CES1; type: cell-based; settings: Zluc cells transiently transfected with human CES1
Experimental: as §3, §4

[13] = single oral 10 mg/kg, normalized to 1 μmol/kg dose

CC(C)OC(=O)[C@@H](C)NP(=O)(OC[C@H]1O[C@@H](n2ccc(=O)[nH]c2=O)[C@](C)(Cl)[C@@H]1O)Oc1ccccc1 (single isomer, unassigned; diastereomer 1) [Compound 40i Diastereomer 1]
EC50 (HCV genotype 1b replicon [1]): > 10 µM
HLM (1 hr) stability (percent remaining) [2]: + (+ ≤ 25%)
HIM (1 hr) stability (percent remaining) [3]: +++ (50% < +++ ≤ 75%)
MsH AUC (fresh mouse hepatocytes): ++++ (1500 < ++++)
MsH Cmax (fresh mouse hepatocytes): ++++ (100 < ++++)
Ms Plasma nucleoside AUC [4]: +++ (500 < +++ ≤ 1500)
Ms Plasma nucleoside Cmax [4]: +++ (50 < +++ ≤ 100)
Plasma nucleoside Tmax [5]: 6 h
Plasma prodrug Tmax [5]: 2 h
Plasma nucleoside AUC0-24 ([5]; normalized to 1 μmol/kg dose): ++ (150 < ++ ≤ 500)
Plasma prodrug AUC0-24 ([5]; normalized to 1 μmol/kg dose): + (+ ≤ 150)
Cmax ([5]; normalized to 1 μmol/kg dose, read-out: Plasma nucleoside Cmax): 15 to 50 nM
Cmax ([5]; normalized to 1 μmol/kg dose, read-out: Plasma prodrug Cmax): ≤ 15 nM
Nucleoside triphosphate in Liver C6 ([6]; 6 hours post dose, 10 mg/kg oral, normalized to 1 μmol/kg dose): ++++ (100 < ++++)
Nucleoside triphosphate in Liver Tmax ([6]; single oral 10 mg/kg): 6 h
Nucleoside triphosphate in Liver AUC0-24 [6, 13]: ++++ (1500 < ++++)
Nucleoside triphosphate in Liver Cmax [6, 13]: ++++ (100 < ++++)
CC50 (Zluc cells [7]): > 50 µM

CC(C)(CO)C(=O)SCCOP(=O)(NCc1ccccc1)OC[C@H]1O[C@@H](n2cnc3c(=O)[nH]c(N)nc32)[C@](C)(O)[C@@H]1O (stereo partly drawn) [IDX-184]
EC50 (HCV genotype 1b replicon [8]): < 0.25 µM
EC50 (HCV genotype 1b replicon [9]): < 0.25 µM
Effect of CES1 overexpression on replicon activity (HCV genotype 1b replicon [9]): not increased
Fold Activity Increase EC50 (Zluc)/EC50 (Zluc + CES1) (HCV genotype 1b replicon [9]): + (+ ≤ 1)
CC50 (Zluc cells [10]): > 50 µM
CC50 (Zluc + CES1 cells): > 50 µM

CC(C)OC(=O)[C@H](C)N[P@](=O)(OC[C@H]1O[C@@H](n2ccc(=O)[nH]c2=O)[C@](C)(F)[C@@H]1O)Oc1ccccc1 [Sofosbuvir, sofosbuvir]
EC50 (HCV genotype 1b replicon [8]; Hepatitis C virus): 0.25 to 1 µM
EC50 (HCV genotype 1b replicon [9]; Hepatitis C virus): 0.25 to 1 µM
Effect of CES1 overexpression on replicon activity (HCV genotype 1b replicon [9]): not increased
Fold Activity Increase EC50 (Zluc)/EC50 (Zluc + CES1) (HCV genotype 1b replicon [9]): + (+ ≤ 1)
CC50 [11]: > 50 µM
CC50 [12]: > 50 µM
